pKi: −log10 of the molar value.
Biological target: human capsaicin receptor (VR1) (Homo sapiens, UniProt Q8NER1)
Test: Capsaicin receptor binding assay ([3H]RTX competition, VR1-transfected HEK293 membranes)

Sequence of human capsaicin receptor (VR1) (Q8NER1 whole entry): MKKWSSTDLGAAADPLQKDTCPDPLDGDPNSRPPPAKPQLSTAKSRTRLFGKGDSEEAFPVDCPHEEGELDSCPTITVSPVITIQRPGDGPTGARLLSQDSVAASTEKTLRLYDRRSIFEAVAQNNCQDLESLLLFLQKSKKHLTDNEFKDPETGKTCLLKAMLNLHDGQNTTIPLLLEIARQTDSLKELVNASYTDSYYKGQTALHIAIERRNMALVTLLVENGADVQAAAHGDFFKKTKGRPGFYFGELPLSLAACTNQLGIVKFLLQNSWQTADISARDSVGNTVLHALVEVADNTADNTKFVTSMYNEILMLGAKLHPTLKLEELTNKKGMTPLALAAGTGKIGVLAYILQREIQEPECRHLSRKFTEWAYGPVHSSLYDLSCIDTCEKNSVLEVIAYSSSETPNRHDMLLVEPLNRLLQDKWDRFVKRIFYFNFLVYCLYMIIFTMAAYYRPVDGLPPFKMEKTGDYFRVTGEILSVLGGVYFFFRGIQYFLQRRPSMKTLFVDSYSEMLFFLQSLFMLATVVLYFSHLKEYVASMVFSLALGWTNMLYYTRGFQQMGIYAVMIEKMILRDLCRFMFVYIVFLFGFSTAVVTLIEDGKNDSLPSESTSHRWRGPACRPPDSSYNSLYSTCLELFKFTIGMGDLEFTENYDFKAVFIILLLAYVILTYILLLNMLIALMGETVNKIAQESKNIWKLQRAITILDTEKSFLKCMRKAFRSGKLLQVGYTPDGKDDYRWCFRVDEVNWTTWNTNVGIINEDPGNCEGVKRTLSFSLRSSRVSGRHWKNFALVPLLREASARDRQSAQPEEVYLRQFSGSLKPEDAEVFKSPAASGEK

pKi	Compound
> 6.00	CC1CCCN(Cc2nc(Nc3ccc(C(F)(F)F)nc3)c3ccc(-c4ncccc4C(F)(F)F)cc3n2)C1 (stereo not shown) [Compound 485, [2-(3-Methyl-piperidin-1-ylmethyl)-7-(3-trifluoromethyl-pyridin-2-yl)-quinazolin-4-yl]-(6-trifluoromethyl-pyridin-3-yl)-amine]
> 6.00	CCCN(CCC)Cc1nc(Nc2ccc(C(F)(F)F)cc2)c2ncc(-c3ncccc3C(F)(F)F)cc2n1 [Compound 664, [2-Dipropylaminomethyl-7-(3-trifluoromethyl-pyridin-2-yl)-pyrido[3,2-d]pyrimidin-4-yl]-(4-trifluoromethyl-phenyl)-amine]
> 6.00	CCN(CC)Cc1nc(Nc2ccc(C(F)(F)F)nc2)c2ccc(-c3ncccc3C(F)(F)F)cc2n1 [Compound 368, [2-Diethylaminomethyl-7-(3-trifluoromethyl-pyridin-2-yl)-quinazolin-4-yl]-(6-trifluoromethyl-pyridin-3-yl)-amine]
> 6.00	COCc1nc(Nc2ccc(C(C)(C)C(C)=O)cc2)c2ccc(-c3ncccc3C)nc2n1 [Compound 212, 3-{4-[2-Methoxymethyl-7-(3-methyl-pyridin-2-yl)-pyrido[2,3-d]pyrimidin-4-ylamino]-phenyl}-3-methyl-butan-2-one]
> 6.00	CC(C)(C)c1ccc(Nc2nc(C(=O)O)nc3nc(-c4ncccc4C(F)(F)F)ccc23)cc1 [Compound 220, 4-(4-tert-Butyl-phenylamino)-7-(3-trifluoromethyl-pyridin-2-yl)-pyrido[2,3-d]pyrimidine-2-carboxylic acid]
> 6.00	CN1CCC(c2nc(Nc3ccc(C(C)(C)C)cc3)c3ccc(-c4ncccc4Cl)nc3n2)CC1 [Compound 769, (4-tert-Butyl-phenyl)-[7-(3-chloro-pyridin-2-yl)-2-(1-methyl-piperidin-4-yl)-pyrido[2,3-d]pyrimidin-4-yl]-amine]
> 6.00	O=C(c1nc(Nc2ccc(C(F)(F)F)cc2)c2ccc(-c3ncccc3C(F)(F)F)nc2n1)N1CCOCC1 [Compound 461, Morpholin-4-yl-[4-(4-trifluoromethyl-phenylamino)-7-(3-trifluoromethyl-pyridin-2-yl)-pyrido[2,3-d]pyrimidin-2-yl]-methanone]
> 6.00	COCCN(CCOC)CCc1nc(Nc2ccc(C(F)(F)F)cc2)c2ccc(-c3ncccc3C(F)(F)F)cc2n1 [Compound 427, [2-{2-[Bis-(2-methoxy-ethyl)-amino]-ethyl}-7-(3-trifluoromethyl-pyridin-2-yl)-quinazolin-4-yl]-(4-trifluoromethyl-phenyl)-amine]
> 6.00	C=CCN(CC=C)C(=O)c1nc(Nc2ccc(C(F)(F)F)cc2)c2ccc(-c3ncccc3C(F)(F)F)nc2n1 [Compound 465, 4-(4-Trifluoromethyl-phenylamino)-7-(3-trifluoromethyl-pyridin-2-yl)-pyrido[2,3-d]pyrimidine-2-carboxylic acid diallylamide]

Compound	pKi
COc1cc(Nc2nc(COCC(C)C)nc3nc(-c4ncccc4Cl)ccc23)ccc1F [Compound 285, [7-(3-Chloro-pyridin-2-yl)-2-isobutoxymethyl-pyrido[2,3-d]pyrimidin-4-yl]-(4-fluoro-3-methoxy-phenyl)-amine]	> 6.00
CC(C)COCc1nc(Nc2ccc(C#N)cc2)c2ccc(-c3ncccc3Cl)nc2n1 [Compound 261, 4-[7-(3-Chloro-pyridin-2-yl)-2-isobutoxymethyl-pyrido[2,3-d]pyrimidin-4-ylamino]-benzonitrile]	> 6.00
CC(C)COCc1nc(Nc2cccc(Cl)c2)c2ccc(-c3ncccc3C(F)(F)F)nc2n1 [Compound 271, (3-Chloro-phenyl)-[2-isobutoxymethyl-7-(3-trifluoromethyl-pyridin-2-yl)-pyrido[2,3-d]pyrimidin-4-yl]-amine]	> 6.00
CC(C)COCc1nc(Nc2ccc(CO)cc2)c2ccc(-c3ncccc3Cl)nc2n1 [Compound 277, {4-[7-(3-Chloro-pyridin-2-yl)-2-isobutoxymethyl-pyrido[2,3-d]pyrimidin-4-ylamino]-phenyl}-methanol]	> 6.00

Source: US20040156869A1, “2-substituted quinazolin-4-ylamine analogues” (Neurogen Corporation, priority 2002, published 2004)
